These results are taken from patent US6903121B1, “TREATMENT OF TUMORS WITH ACETYLENES DISUBSTITUTED WITH A PHENYL OR HETEROAROMATIC GROUP AND A SUBSTITUTED CHROMANYL, THIOCHROMANYL OR TETRAHYDROQUINOLINYL GROUP IN COMBINATION WITH OTHER ANTI-TUMOR AGENTS” (Allergan, Inc., priority 2000, dated 2005).

For one test, the system named is carcinoma cell lines. The following applies: in some of the cell lines; Fanjul et al. 1996; cited from earlier work.
Test [1] deals with MCF-7 human breast cancer lines. The following applies: Toma et al. 1997; cited from earlier work.
For a further test, the system named is SK-BR-3 cells. The experiment in a line: Cell proliferation assay (BrdU incorporation) in SK-BR-3 breast cancer cells. It is filed as cell-based, human. As for the experimental part:
(§1) The SK-BR-3, T47D and HL-60 cell cultures in which the assay procedures were performed are also well known and are available from sources well known in the art. Specifically, as is known, T47D is an estrogen receptor positive (ER^+) human breast cancer cell line, and SK-BR-3 is an estrogen receptor negative (ER^−) human breast cancer cell line. HL-60 is a well known human myeloid leukemia cell line. The assay procedure for the breast cancer lines itself is well known in the art and involves determining incorporation of 5-bromo-2′-deoxyuridine (BrdU) into the cells. As is known, incorporation of less BrdU represents less cell proliferation (inhibition of cell proliferation), and this assay is accepted in the art as a measure of anti-proliferative or anti-tumor activity of the assayed agent or agents. The assay procedure for the HL-60 cell line is also well-known in the art. It involves measuring the concentration of formazan dye which is cleaved from 3-[4,5-dimethylthiazole-2-yl]-2,5-diphenyltetrazolium bromide by viable HL-60 cells.
(§2) The estrogen receptor-positive (ER^+) cell line T-47D and the ER^− cell line SK-BR-3 were cultured in Dulbecco's modification of Eagle's medium (DMEM Gibco BRL, Gaithersburg, Md.) supplemented with 10% fetal bovine serum (HyClone, Logan, Utah), 2 mM L-glutamine and 1% antibiotics-antimycotics (Gibco BRL). Cell lines were obtained from the American Type Culture Collection (ATCC, Rockville, Md., HTB-133 and HTB-30 for T-47D and SK-BR-3, respectively). Cells were cultured at 37 °C in a humidified atmosphere containing 5% CO2.
(§3) Proliferation of cancer cell lines was determined using a commercial cell proliferation kit (Roche Diagnostics), essentially following the instructions of the manufacturer. Cells were seeded into 96-well tissue culture plates (Corning Incorporated, Corning, N.Y.) at a concentration of 3000 cells/well. After 24 hours, cells were treated continuously with tazarotene (Formula 3) and/or interferons (IFNs) or solvent alone. The appropriate concentrations of tazarotene (Formula 3) used in this study were between 10^−11 M and 10^−6M; IFN concentrations were between 10 and 1000 Unit/ml. Culture media were changed every 72 hours. After 7 days, 10 μl of 5-bromo-2′-deoxyuridine (BrdU) was added to each well. Incubation with BrdU was stopped 24 hours later by adding 100 μl of anti-BrdU antibody to each well. The amount of BrdU incorporated into the DNA of proliferating cells was assessed by measuring absorbance at […]. Each experiment was performed in triplicate in three independent experiments.
(§4) The growth inhibition observed for a combined treatment with tazarotene (Formula 3) and IFNs was analyzed for both synergistic and additive effects. The criteria for these effects have been discussed by three different groups (Aapro et al., Cancer Chemother. Pharmacol., 10: 161-166, 1983, Marth et al. J. Natl Cancer Inst., 77:1197-1202, 1986, Kurbacher et al., Cancer Letters, 103: 183-189, 1996). The mathematical multiplication of the two surviving fractions after the treatment of either with tazarotene (Formula 3) or with the respective interferon is the calculated value for simple additivity of both agents in combination. This calculated value is compared to the actual value observed to determine the nature of the combination effect. […] Synergism or inhibition was determined for each experiment individually, with the P value being 0.05 in comparison to the simple additivity hypothesis.
Background: Incorporation of labelled thymidine or its analogues reports DNA synthesis.

Another test deals with T-47D cells. As to the kind of experiment: Cell proliferation assay (BrdU incorporation) in T-47D breast cancer cells. Format: cell-based, human. As for the experimental part: as §1, §2, §3, §4
For a further test, the system named is HL-60 cells. The experiment in a line: Cell proliferation assay (MTT) in HL-60 leukemia cell line. Format: cell-based, human. As for the experimental part:
as §1
The human myeloid leukemia cell line HL-60 was cultured in Iscove's modified Dulbecco's medium (IMDM Gibco BRL, Gaithersburg, Md.) supplemented with 10% fetal bovine serum (HyClone, Logan, Utah), 2 mM L-glutamine and 1% antibiotics-antimycotics (Gibco BRL). HL-60 cells were obtained from the American Type Culture Collection (ATCC, Rockville, Md., CCL-240). Cells were cultured at 37° C. in a humidified atmosphere containing 5% CO2.
Proliferation of the HL-60 leukemia cell line was determined by a cell viability and non-radioactive commercial cell proliferation kit (MTT assay; Roche Diagnostics, Indianapolis, Ind.), essentially by following the instructions of the manufacturer. Cells were seeded into 96-well tissue culture plates (Corning Incorporated, Corning, N.Y.) at a concentration of 1000 cells/well. After 24 hours, the cells were treated continuously with tazarotene (Formula 3) and/or IFNs or solvent alone. […] The quantification of viable cells, capable of cleaving MTT to form a formazan dye, was assessed by measuring absorbance at 590 nm. […]
as §4, with “The criteria for these effects have been discussed by three different groups (Aapro et al., Cancer Chemother. Pharmacol., 10: 161-166, 1983, Marth et al. J. Natl Cancer Inst., 77:1197-1202, 1986, Kurbacher et al., Cancer Letters, 103: 183-189, 1996).” left out

In test [2] the test system is MCF-7 human carcinoma cell line. The following applies: Kurbacher et al. 1996; cited from earlier work.
In test [3] the test system is MDA-MB 231 human carcinoma cell line. The following applies: Kurbacher et al. 1996; cited from earlier work.

Molecules are shown by their SMILES. “Also recorded” adds a separate entry of the source.

For `COC(=O)c1ccc(/C(C)=C/c2ccc3c(c2)C(C)(C)CCC3(C)C)cc1` [SRI 11220], the “anti-proliferative activity in combination with interferon” value in the test with carcinoma cell lines was “synergistic”.

For the molecule `CC1=C(/C=C/C(C)=C/C=C/C(C)=C/C(=O)O)C(C)(C)CCC1` [all trans retinoic acid], in test [1], the “combination effect with other chemotherapeutic agents such as tamoxifen (TAM)” value is “synergistic effect” and the “combination effect with α interferon (α IFN)” value is on record as “synergistic effects”.

As for `CCOC(=O)c1ccc(C#Cc2ccc3c(c2)C(C)(C)CCS3)nc1` [tazarotene, ethyl 6-[2-(4,4-dimethylthiochroman-6-yl)ethynyl]nicotinate], the “anti-proliferative effect of combination with IFNα (combination effect vs theoretically additive curve)” value in the test on SK-BR-3 cells (IFNα constant 100 U/ml, tazarotene varied, FIG. 1) is reported as “synergism; also recorded: synergistic effect”. In addition, the “anti-proliferative effect of combination with IFNβ (combination effect)” value was “synergism; also recorded: significant synergistic effect” in the test with SK-BR-3 cells (IFNβ constant 10 U/ml, tazarotene varied, FIG. 3); “striking synergism” in the test on SK-BR-3 cells (tazarotene constant 10 nM, IFNβ varied 0 to 1000 U/ml, FIG. 9); “synergism; also recorded: synergism, although not as striking as in the assays with SK-BR-3 cells” in the test on T-47D cells (IFNβ constant 100 U/ml, tazarotene varied, FIG. 4); “significant synergism” in the test with T-47D cells (tazarotene constant 10 nM, IFNβ varied 0 to 1000 U/ml, FIG. 10); “significant synergism” with HL-60 cells (IFNβ constant 100 U/ml, tazarotene varied, FIG. 14); “significant synergism” in the test on HL-60 cells (tazarotene constant 50 nM, IFNβ varied 0 to 1000 U/ml, FIG. 16). The “anti-proliferative effect of combination with IFNγ (combination effect)” value in the test on SK-BR-3 cells (IFNγ constant 100 U/ml, tazarotene varied, FIG. 5) is given as “synergism; also recorded: significant synergistic effect”; with SK-BR-3 cells (tazarotene constant 10 nM, IFNγ varied 0 to 1000 U/ml, FIG. 11), “striking synergism”; in the test with T-47D cells (IFNγ constant 100 U/ml, tazarotene varied, FIG. 6), “synergism, although not as striking as in the assays with SK-BR-3 cells”. In addition, the “anti-proliferative effect of combination with IFNα (combination effect)” value in the test on SK-BR-3 cells (tazarotene constant 10 nM, IFNα varied 0 to 1000 U/ml, FIG. 7) is recorded as “striking synergism”; in the test on T-47D cells (IFNα constant 100 U/ml, tazarotene varied, FIG. 2), “synergism, although not as striking as in the assays with SK-BR-3 cells”; in the test with T-47D cells (tazarotene constant 10 nM, IFNα varied 0 to 1000 U/ml, FIG. 8) it was “weak synergism”; with HL-60 cells (IFNα constant 100 U/ml, tazarotene varied, FIG. 13), “significant synergism”; with HL-60 cells (tazarotene constant 50 nM, IFNα varied 0 to 1000 U/ml, FIG. 15), “significant synergism”.

In the case of `O=C1O[C@H]([C@@H](O)CO)C(O)=C1O` [vitamin C], the “combination effect with certain chemotherapeutic anti-tumor agents” value in test [2] and in test [3] was “synergistic action” each time.
